Measured values as given in patent publication US7150886B2, “Composition for treating diseased liver” (Industrial Technology Research Institute, priority 2002, dated 2006).

How the values were obtained:
[1] = test system: rats with d-galactosamine-induced acute hepatitis; assay: D-galactosamine-induced acute hepatitis in rats, serum GOT and GPT; format: in vivo; details: rat serum 24 h after d-galactosamine i.p. (500 mg/kg); test substance oral × 3, dose per group as in Table 3; N = 5
Experimental: The liver enzymes were dramatically released to the blood stream when the hepatocyte was damaged, and thus the serum GOT and GPT values increased. […] In other words, the restoration effects of the extracts on the damaged liver were evaluated through comparing the GOT and GPT variations before and after a treatment of the extracts.
Five male rats were divided in each group, each rat with body weight about 200±20 g. […] The reference group was orally given guanine (300 mg/kg). Half an hour later, each group was i.p. with d-galactosamine (500 mg/kg), except the control group. Four and eight hours after first injection, test substances were administered orally again at the same dose. After 24 hours, the animals were sacrificed, and the blood was collected from the carotid arteries. The serum was separated and incubated at room temperature for 10 minutes, and then centrifuged (Backman centrifuge, GS-6R, 3000 rpm) for another 10 minutes. The activities of rat serum GOT (Glutamyl Oxaloacetic Transaminase) and GPT (Glutamyl Pyrubic Transaminase) were measured.

B type hepatitis = details: treating B type hepatitis; cited from earlier work

Nc1nc2nc[nH]c2c(=O)[nH]1 [Guanine, guanine]
GOT [1]: 1024.8 ± 91.1 U/L
GPT [1]: 602.4 ± 61.7 U/L

interferon
positive response (B type hepatitis): 20%
